Data published in patent publication US20260265273A1, “SOLID FORM OF FUSED RING COMPOUND, AND PREPARATION METHOD THEREFOR AND USE THEREOF” (APPLIED PHARMACEUTICAL SCIENCE, INC., priority 2022, published 2026).
In brackets after ≈: the same amount, converted by molar mass.

Columns and labels:
[1] = Pharmacokinetic experiment in SD rats; type: in vivo; details: oral intragastric 10 mg/kg
Description: Six SPF-grade SD rats were prepared and weighed before administration. The dose of administration was calculated based on the weight. […] These administration solutions were orally and intragastrically administered at 10 mg/kg. The rats were weighed before administration, and the dose of administration was calculated based on the weight. 3 rats were used for each crystal form. The administration solutions were orally and intragastrically administered, followed by collection of samples via the jugular vein or other suitable means at the following time points: 0.25 […], and 24 h. About 0.20 mL of each sample was collected, and the plasma was separated out by centrifugation within 2 h. The compound I was detected, and plasma drug concentration-time curves were plotted. The pharmacokinetic parameters were calculated by utilizing WinNonlin according to the plasma concentration data at different time points.

[2] = Solubility Test I (stepwise solvent addition); type: physicochemical; details: thermodynamic from solid, room temperature
Description: About 2 mg of the crystal form A sample prepared according to Example 2 was weighed out and added to an HPLC vial, and the corresponding solvent was added stepwise (50/50/200/700 μL in sequence), followed by oscillation until the solid was completely dissolved. If the sample was still not completely dissolved after 1 mL of the solvent was added, no more solvent was added. The solubility range was calculated based on the mass of the solid sample, the volume of the solvent added, and the observed dissolution results, and the results are summarized in Table 3-1.

[3] = Solubility Test II (saturated solubility by HPLC); type: physicochemical; details: for solubility at 24 h: 37 °C, thermodynamic from solid
Description: Chromatographic column: Waters XTERRA RP18, 4.6 mm×150 mm, 3.5 μm or an equivalent chromatographic column. […] The gradient elution conditions are shown in Table 3-2. pH 4.5 acetate buffer: 0.59806 g of sodium acetate trihydrate was added to a 200-mL measuring flask and dissolved in an appropriate amount of water; 1.6 mL of glacial acetic acid was added; and the mixture was diluted to volume to obtain the pH 4.5 acetate buffer. pH 6.8 phosphate buffer: 1.38501 g of potassium dihydrogen phosphate and 0.18086 g of sodium hydroxide were added to the same 200-mL measuring flask; and the mixture was dissolved in water and diluted to volume to obtain the pH 6.8 phosphate buffer. 10.0 mL of each medium was precisely measured, and the media were placed into different 25-mL measuring flasks; an appropriate amount of each test crystal form was added; and the flasks were sealed and oscillated in an oscillator at 37° C. for 24 h to obtain supersaturated solutions. pH 6.8 phosphate buffer sample solution: the supersaturated solution prepared using the pH 6.8 phosphate buffer medium was filtered to obtain the pH 6.8 phosphate buffer sample solution. Water sample solution: the supersaturated solution prepared using the water medium was filtered to obtain the water sample solution. pH 4.5 acetate buffer sample solution: the supersaturated solution prepared using the pH 4.5 acetate buffer medium was filtered, and 1.0 mL of the filtrate was precisely measured and placed into a 10-mL measuring flask; the filtrate was diluted to volume with the pH 4.5 acetate buffer medium, and 1.0 mL of the solution was then precisely measured and placed into the 10-mL measuring flask; and the solution was diluted to volume with methanol to obtain the pH 4.5 acetate buffer sample solution. (ii) Preparation of crystal form A sample solution: pH 6.8 phosphate buffer sample solution: the supersaturated solution prepared using the pH 6.8 phosphate buffer medium was filtered to obtain the pH 6.8 phosphate buffer sample solution. Water sample solution: the supersaturated solution prepared using the water medium was filtered to obtain the water sample solution. pH 4.5 acetate buffer sample solution: the supersaturated solution prepared using the pH 4.5 acetate buffer medium was filtered, and 1.0 mL of the filtrate was precisely measured and placed into a 10-mL measuring flask; the filtrate was diluted to volume with the pH 4.5 acetate buffer medium, and 1.0 mL of the solution was then precisely measured and placed into a 25-mL measuring flask; and the solution was diluted to volume with methanol to obtain the pH 4.5 acetate buffer sample solution. Each medium sample solution was taken, 10 μL of each test sample solution was precisely measured and injected into a liquid chromatograph according to the chromatography conditions described above, and the chromatogram was recorded. The saturated solution degree of each medium was calculated according to the formula below. In the formula: WR=sample weight of control solution, mg; PR=purity factor of control; • AS=peak area of main peak in test solution: DS=dilution factor of test solution; • AR=peak area of main peak in control solution; DR=dilution factor of control solution;

[4] = Solid-state stability test (XRPD, HPLC purity); type: physicochemical
[5] = Hygroscopicity test (DVS); type: physicochemical
Description: Dynamic vapor sorption (DVS) curves were acquired on a DVS Intrinsic in SMS (Surface Measurement Systems). The relative humidity at 25° C. was corrected with the deliquescence points of LiCl, Mg(NO3)2, and KCl.

[6] = 25° C./60% RH/uncovered, 2 weeks
[7] = 25° C./60% RH/uncovered, 4 weeks
[8] = 25° C./60% RH/uncovered, 6 weeks
[9] = 40° C./75% RH/uncovered, 2 weeks
[10] = 40° C./75% RH/uncovered, 4 weeks
[11] = 40° C./75% RH/uncovered, 6 weeks

In the case of CCOc1cc(-c2ccc(N3CC4CC(C3)N4Cc3ccc(OC)nc3)nc2)c2c3cn[nH]c3nn2c1 (single isomer, unassigned) [Crystal form A], the AUC(0-t) ([1]; SD, rat, plasma, po, 10 mg/kg, 1 mg/mL in 5% DMSO in normal saline, compound I in plasma, 0.25-24 h, read-out: AUC(0-t)) is reported as 19.1 µg·h/mL, the in vivo absorption ([1]; comparison of crystal forms) is reported as “significantly superior to that of the crystal form B” and the solubility ([2]; organic solvent or mixture, solvent 1,4-Dioxane) is reported as 2000 to 6700 µg/mL (≈ 4.03 to 13.5 mM). The solubility ([2]; organic solvent or mixture, solvent 2-MeTHF) was 2400 to 8000 µg/mL (≈ 4.83 to 16.1 mM), the solubility ([2]; organic solvent or mixture, solvent ACN) was < 2200 µg/mL and the solubility ([2]; organic solvent or mixture, solvent Acetone, undissolved sample completely dissolved at 50° C. ~1 h) was < 1900 µg/mL. For the same compound, the solubility ([2]; organic solvent or mixture, solvent Anisole, undissolved sample completely dissolved at 50° C. ~1 h) was < 2200 µg/mL, the solubility ([2]; organic solvent or mixture, solvent CHCl3) was 20000 to 40000 µg/mL (≈ 40.3 to 80.6 mM) and the solubility ([2]; organic solvent or mixture, solvent CPME, undissolved sample completely dissolved at 50° C. ~1 h) was < 2000 µg/mL. The solubility ([2]; organic solvent or mixture, solvent DCM) was 7700 to 23000 µg/mL (≈ 15.5 to 46.3 mM), the solubility ([2]; organic solvent or mixture, solvent DMSO) was 21000 to 42000 µg/mL (≈ 42.3 to 84.6 mM) and the solubility ([2]; organic solvent or mixture, solvent EtOAc, undissolved sample completely dissolved at 50° C. ~1 h) was < 2200 µg/mL. The solubility ([2]; organic solvent or mixture, solvent EtOH, undissolved sample completely dissolved at 50° C. ~1 h) was < 1900 µg/mL, the solubility ([2]; organic solvent or mixture, solvent IPA, undissolved sample completely dissolved at 50° C. ~1 h) was < 2000 µg/mL and the solubility ([2]; organic solvent or mixture, solvent IPAC) was < 2200 µg/mL. The solubility ([2]; organic solvent or mixture, solvent MIBK) was < 2200 µg/mL, the solubility ([2]; organic solvent or mixture, solvent MTBE) was < 2200 µg/mL and the solubility ([2]; organic solvent or mixture, solvent MeOH, undissolved sample completely dissolved at 50° C. ~1 h) was < 2100 µg/mL. The solubility ([2]; organic solvent or mixture, solvent THE) was 1900 to 6300 µg/mL (≈ 3.83 to 12.7 mM), the solubility ([2]; organic solvent or mixture, solvent Toluene) was < 2000 µg/mL and the solubility ([2]; organic solvent or mixture, solvent n-Heptane) was < 2000 µg/mL. For the same compound, the solubility ([2]; water, solvent H2O) was < 2300 µg/mL, the Saturated solubility ([3]; pH 4.5 acetate buffer, 37° C., 24 h, listed as crystal form A) was 14545.08 µg/mL and the solubility at 24 h ([3]; pH 6.8 phosphate buffer, pH 6.8, aqueous buffer) was 0.04 µg/mL (≈ 8.06e-05 mM). For the same compound, the solubility at 24 h ([3]; water) was 0.61 µg/mL (≈ 0.00123 mM), the “Purity (area %)” value [4, 6] was 99.95 area % and the “Relative to initial purity (%)” value [4, 6] was 99.99%. The Crystal form change ([4]; 25° C./60% RH/uncovered, 2 weeks, XRPD) was “No change”, the “Purity (area %)” value [4, 7] was 99.94 area % and the “Relative to initial purity (%)” value [4, 7] was 99.98%. For the same compound, the Crystal form change ([4]; 25° C./60% RH/uncovered, 4 weeks, XRPD) was “No change”, the “Purity (area %)” value [4, 8] was 99.96 area % and the “Relative to initial purity (%)” value [4, 8] was 100.00%. The Crystal form change ([4]; 25° C./60% RH/uncovered, 6 weeks, XRPD) was “No change”, the “Purity (area %)” value [4, 9] was 99.96 area % and the “Relative to initial purity (%)” value [4, 9] was 100.00%. For the same compound, the Crystal form change ([4]; 40° C./75% RH/uncovered, 2 weeks, XRPD) was “No change”, the “Purity (area %)” value [4, 10] was 99.96 area % and the “Relative to initial purity (%)” value [4, 10] was 100.00%. For the same compound, the Crystal form change ([4]; 40° C./75% RH/uncovered, 4 weeks, XRPD) was “No change”, the “Purity (area %)” value [4, 11] was 99.95 area % and the “Relative to initial purity (%)” value [4, 11] was 99.99%. For the same compound, the Crystal form change ([4]; 40° C./75% RH/uncovered, 6 weeks, XRPD) was “No change”, the “Purity (area %)” value ([4]; 60° C./sealed, 24 h) was 99.96 area % and the “Relative to initial purity (%)” value ([4]; 60° C./sealed, 24 h) was 100.00%. For the same compound, the Crystal form change ([4]; 60° C./sealed, 24 h, XRPD) was “No change”, the “HPLC purity under the test conditions” value ([4]; all stability conditions (60° C. sealed 24 h; 25° C./60% RH and 40° C./75% RH uncovered 2, 4, 6 weeks)) was “not significantly reduced” and the “crystal form under the test conditions” value ([4]; all stability conditions, XRPD) was “not changed”. For the same compound, the hygroscopicity evaluation ([5]; DVS at 25° C., 0% RH-95% RH, according to Chinese Pharmacopoeia 2015 Edition) was “slightly hygroscopic”, the hygroscopic weight gain ([5]; DVS, 25° C./80% RH, listed as crystal form A) was “about 1.1%” and the “crystal form after the DVS test (XRPD)” value ([5]; after DVS test) was “not changed”.
